In PMC6272178, “Flavonoids from Sideritis Species: Human Monoamine Oxidase (hMAO) Inhibitory Activities, Molecular Docking Studies and Crystal Structure of Xanthomicrol” (Molecules, 2015):
Read-outs that look alike come from different tables or passages of the source.

Key:
mouse brain MAO-A = tested on: mouse brain MAO-A; design: method as in PMID 24218136, PMID 25142815; conditions: flavonoids from Cayratia japonica; cited from earlier work
hMAO-A [1] = biological target: T1, hMAO-A (Homo sapiens, UniProt P21397); test: hMAO-A inhibition, fluorimetric Amplex Red assay with p-tyramine, kinetic Ki determination; format: biochemical; conditions: for Mode of hMAO-A inhibition: Lineweaver–Burk plots; for Experimental SI: SI = Ki (MAO-A)/Ki (MAO-B); for Experimental SI / Selectivity: from experimental Ki values; for Selectivity: isoform preferentially inhibited; for Ki: recombinant hMAO-A, p-tyramine substrate 0.05–0.5 mM, mean ± SEM of three experiments, read-out: Experimental Ki for MAO-A
T1 construct: purchased Sigma-Aldrich (Munich, Germany); host or cells: baculovirus-infected BTI insect cells
T1 sequence (P21397 1-527): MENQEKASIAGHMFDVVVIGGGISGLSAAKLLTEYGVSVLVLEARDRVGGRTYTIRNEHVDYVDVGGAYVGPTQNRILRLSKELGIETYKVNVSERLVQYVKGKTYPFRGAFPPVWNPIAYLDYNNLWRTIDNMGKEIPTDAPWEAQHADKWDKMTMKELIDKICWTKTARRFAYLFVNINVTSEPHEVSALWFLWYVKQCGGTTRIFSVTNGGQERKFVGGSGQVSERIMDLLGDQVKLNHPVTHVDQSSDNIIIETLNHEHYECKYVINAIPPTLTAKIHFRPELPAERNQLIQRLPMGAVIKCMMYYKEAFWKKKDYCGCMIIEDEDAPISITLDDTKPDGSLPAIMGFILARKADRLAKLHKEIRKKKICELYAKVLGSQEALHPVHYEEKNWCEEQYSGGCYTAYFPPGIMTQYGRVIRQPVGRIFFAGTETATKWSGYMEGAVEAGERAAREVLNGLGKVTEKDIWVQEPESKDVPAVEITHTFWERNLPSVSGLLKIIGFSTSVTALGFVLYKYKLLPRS

hMAO-B = biological target: T2, hMAO-B (Homo sapiens, UniProt P27338); test: hMAO-B inhibition, fluorimetric Amplex Red assay with p-tyramine, kinetic Ki determination; format: biochemical; conditions: recombinant hMAO-B, p-tyramine substrate 0.05–0.5 mM, mean ± SEM of three experiments; read-out: Experimental Ki for MAO-B
T2 construct: purchased Sigma-Aldrich (Munich, Germany); host or cells: baculovirus-infected BTI insect cells
T2 sequence (P27338 1-520): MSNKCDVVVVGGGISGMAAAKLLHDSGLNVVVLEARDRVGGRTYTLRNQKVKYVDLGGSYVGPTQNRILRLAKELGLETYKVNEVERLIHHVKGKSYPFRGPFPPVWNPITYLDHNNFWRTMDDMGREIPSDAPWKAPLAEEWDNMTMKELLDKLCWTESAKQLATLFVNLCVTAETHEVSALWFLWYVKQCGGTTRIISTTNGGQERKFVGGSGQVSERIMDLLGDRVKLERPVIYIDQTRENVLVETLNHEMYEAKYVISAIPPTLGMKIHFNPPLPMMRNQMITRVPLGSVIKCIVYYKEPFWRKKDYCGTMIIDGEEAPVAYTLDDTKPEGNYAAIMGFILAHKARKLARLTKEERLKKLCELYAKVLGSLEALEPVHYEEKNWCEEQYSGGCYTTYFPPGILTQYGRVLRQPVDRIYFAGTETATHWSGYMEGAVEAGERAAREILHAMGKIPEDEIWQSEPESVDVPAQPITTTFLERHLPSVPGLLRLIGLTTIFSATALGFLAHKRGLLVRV

hMAO-A [2] = biological target: T1, hMAO-A; test: Reversibility of hMAO-A inhibition, centrifugation-ultrafiltration method; format: biochemical; conditions: for inhibition at 0.5 µM: compound 0.50 μM, mean ± SEM of three experiments; for Reversibility of hMAO-A inhibition: recovery of hMAO-A activity after repeated washing
Method: Reversibility of the MAO inhibition with newly synthesized compounds was determined by centrifugation-ultrafiltration method previously described. Recombinant enzymes (hMAO-A or B) were incubated with a single concentration of the synthesized compounds or the reference inhibitors in a sodium phosphate buffer (0.05 M, pH 7.4) for one hour at 37 °C. An aliquot was stored at 4 °C and used for the measurement of MAO-A and -B activities. The remaining incubated sample was placed in an Ultrafree-0.5 centrifugal tube with a 30 kDa Biomax membrane and centrifuged at 9000× g for 20 min at 4 °C. The enzyme retained in the 30 kDa membrane was re-suspended in a sodium phosphate buffer at 4 °C and centrifuged two more times. After the third centrifugation, the enzyme retained in the membrane was re-suspended in sodium phosphate buffer ([…]) and an aliquot of this suspension was used for MAO-A and -B activity determination. Control experiments were performed simultaneously to determine the 100% MAO activity by replacing the compounds and standards with appropriate dilutions of the vehicles. The corresponding values of percent (%) MAO isoform inhibition was separately calculated for samples with and without repeated washing.

[3] = after repeated washing (three centrifugation-ultrafiltration steps), read-out: hMAO-A Inhibition (%) After Washing
[4] = incubated one hour at 37 °C, before washing, read-out: hMAO-A Inhibition (%) Before Washing

O=c1cc(-c2ccc(O)cc2)oc2cc(O)cc(O)c12 [apigenin]
IC50 (mouse brain MAO-A): 1.17 µM

COc1c(OC)c(O)c2c(=O)cc(-c3ccc(O)cc3)oc2c1OC [Compound 1, xanthomicrol]
Mode of hMAO-A inhibition (hMAO-A [1]): competitive | Experimental SI (hMAO-A [1]): 0.007 | Selectivity (hMAO-A [1]): MAO-A | Ki (hMAO-A [1]): 0.76 ± 0.03 µM | Ki (hMAO-B): 99.5 ± 7.44 µM | inhibition at 0.5 µM (hMAO-A [2]; [3]): 9.23 ± 0.75% | inhibition at 0.5 µM (hMAO-A [2]; [4]): 86.5 ± 5.21% | Reversibility of hMAO-A inhibition (hMAO-A [2]): highly reversible inhibitors

CC(=O)OC[C@H]1O[C@@H](O[C@H]2[C@H](Oc3cc(O)c4c(=O)cc(-c5ccc(O)cc5)oc4c3O)O[C@H](COC(C)=O)[C@@H](O)[C@@H]2O)[C@H](O)[C@H](O)[C@@H]1O [Compound 3, isoscutellarein 7-O-[6'''-O-acetyl-β-D-allopyranosyl-(1→2)]-6''-O-acetyl-β-D-glucopyranoside]
Experimental SI (hMAO-A [1]): 0.034 | Selectivity (hMAO-A [1]): MAO-A | Ki (hMAO-A [1]): 2800 ± 180 µM | Ki (hMAO-B): 80500 µM | inhibition at 0.5 µM (hMAO-A [2]; [3]): 13.3 ± 1.09% | inhibition at 0.5 µM (hMAO-A [2]; [4]): 74.2 ± 4.89%

CC(=O)OC[C@H]1O[C@@H](O[C@H]2[C@H](Oc3cc(O)c4c(=O)cc(-c5ccc(O)cc5)oc4c3O)O[C@H](CO)[C@@H](O)[C@@H]2O)[C@H](O)[C@H](O)[C@@H]1O [Compound 2, isoscutellarein 7-O-[6'''-O-acetyl-β-D-allopyranosyl-(1→2)]-β-D-glucopyranoside]
Experimental SI (hMAO-A [1]): 0.015 | Selectivity (hMAO-A [1]): MAO-A | Ki (hMAO-A [1]): 1100 ± 99.2 µM | Ki (hMAO-B): 75600 µM | inhibition at 0.5 µM (hMAO-A [2]; [3]): 10.9 ± 0.99% | inhibition at 0.5 µM (hMAO-A [2]; [4]): 80.2 ± 5.66%

O=C(NCCN1CCOCC1)c1ccc(Cl)cc1 [Moclobemide, moclobemide, reference compound]
inhibition at 0.5 µM (hMAO-A [2]; [3]): 7.89 ± 0.52% | inhibition at 0.5 µM (hMAO-A [2]; [4]): 91.2 ± 6.33%

COc1ccc(-c2cc(=O)c3c(O)c(OC)c(OC)cc3o2)cc1 [Compound 4, salvigenin]
Mode of hMAO-A inhibition (hMAO-A [1]): competitive | Experimental SI (hMAO-A [1]): 0.086 | Selectivity (hMAO-A [1]): MAO-A | Ki (hMAO-A [1]): 0.54 ± 0.02 µM | Ki (hMAO-B): 6.27 ± 0.36 µM | inhibition at 0.5 µM (hMAO-A [2]; [3]): 8.66 ± 0.65% | inhibition at 0.5 µM (hMAO-A [2]; [4]): 89 ± 5.02% | Reversibility of hMAO-A inhibition (hMAO-A [2]): highly reversible inhibitors
